In US4452778A, “Synergistic antibacterial compositions and method of treatment of infections caused by multiple antibiotic-resistant organisms” (Eli Lilly and Company, priority 1981, dated 1984):
Converted amounts (≈) assume the structure as drawn. Structures can show the parent of a compound that is named as a salt. Where two headings read alike, the source gives them in different places.

Assays:
Pseudomonas aeruginosa = assay: Checkerboard broth dilution synergy study (mic); assay type: cell-based; details: Table III; for MIC: Pseudomonas aeruginosa, read-out: mic, drug alone
Serratia marcescens = assay: Checkerboard broth dilution synergy study (mic); assay type: cell-based; details: Table III; for MIC: Serratia marcescens, read-out: mic, drug alone
E. cloacae = assay: Checkerboard broth dilution synergy study (mic); assay type: cell-based; details: Table III; for MIC: Enterobacter cloacae, read-out: mic, drug alone
Klebsiella pneumoniae = assay: Checkerboard broth dilution synergy study (mic); assay type: cell-based; details: Table III; for MIC: Klebsiella pneumoniae, read-out: mic, drug alone
Proteus rettgeri = assay: Checkerboard broth dilution synergy study (mic); assay type: cell-based; details: Table III; for MIC: Providencia rettgeri, read-out: mic, drug alone
Pseudomonas maltophilia = assay: Checkerboard broth dilution synergy study (mic); assay type: cell-based; details: Table III; for MIC: Stenotrophomonas maltophilia, read-out: mic, drug alone
Acinetobacter sp. = assay: Checkerboard broth dilution synergy study (mic); assay type: cell-based; details: Table III; for MIC: Acinetobacter, read-out: mic, drug alone
Pseudomonas pseudomallei = assay: microbe, parasite or virus in culture; assay type: cell-based
[1] = cited from earlier work; for average peak serum concentration: 1 hour
[2] = 1 mg/kg intramuscular; cited from earlier work

For `NCC[C@H](O)C(=O)N[C@@H]1C[C@H](N)[C@@H](O[C@H]2O[C@H](CN)[C@@H](O)[C@H](O)[C@H]2O)[C@H](O)[C@H]1O[C@H]1O[C@H](CO)[C@@H](O)[C@H](N)[C@H]1O` [amikacin], the MIC (Pseudomonas aeruginosa; isolate 316-2) was 16 µg/mL, the MIC (Pseudomonas aeruginosa; isolate 362) was 16 µg/mL and the MIC (Pseudomonas aeruginosa; isolate 363) was 32 µg/mL. The MIC (Pseudomonas aeruginosa; isolate 610) was 1 µg/mL, the MIC (Pseudomonas aeruginosa; isolate Brownlee) was 16 µg/mL and the “mic of each drug in combination I + A” value (Pseudomonas aeruginosa; isolate 316-2) was 2 µg/mL. For the same compound, the “mic of each drug in combination I + A” value (Pseudomonas aeruginosa; isolate 362) was 2 µg/mL, the “mic of each drug in combination I + A” value (Pseudomonas aeruginosa; isolate 363) was 2 µg/mL and the “mic of each drug in combination I + A” value (Pseudomonas aeruginosa; isolate 610) was 1 µg/mL. The “mic of each drug in combination I + A” value (Pseudomonas aeruginosa; isolate Brownlee) was 4 µg/mL, the MIC (Serratia marcescens; isolate 463-2) was 1 µg/mL and the MIC (Serratia marcescens; isolate 606) was 1 µg/mL. It also gave an MIC (Serratia marcescens; isolate 1414) of 8 µg/mL, an MIC (Serratia marcescens; isolate B377) of 2 µg/mL and an MIC (Serratia marcescens; isolate Ziegler) of 4 µg/mL. For the same compound, the “mic of each drug in combination I + A” value (Serratia marcescens; isolate 463-2) was under 0.5 µg/mL, the “mic of each drug in combination I + A” value (Serratia marcescens; isolate 606) was under 0.5 µg/mL and the “mic of each drug in combination I + A” value (Serratia marcescens; isolate 1414) was under 0.5 µg/mL. For the same compound, the “mic of each drug in combination I + A” value (Serratia marcescens; isolate B377) was under 0.5 µg/mL, the “mic of each drug in combination I + A” value (Serratia marcescens; isolate Ziegler) was 2 µg/mL and the MIC (E. cloacae; isolate 228) was 2 µg/mL. For the same compound, the MIC (E. cloacae; isolate 1253) was 1 µg/mL, the MIC (E. cloacae; isolate 1296) was 4 µg/mL and the MIC (E. cloacae; isolate 1415) was 8 µg/mL. For the same compound, the MIC (E. cloacae; isolate McQuinn) was 32 µg/mL, the “mic of each drug in combination I + A” value (E. cloacae; isolate 228) was under 0.5 µg/mL and the “mic of each drug in combination I + A” value (E. cloacae; isolate 1253) was under 0.5 µg/mL. The “mic of each drug in combination I + A” value (E. cloacae; isolate 1296) was 0.5 µg/mL, the “mic of each drug in combination I + A” value (E. cloacae; isolate 1415) was under 0.5 µg/mL and the “mic of each drug in combination I + A” value (E. cloacae; isolate McQuinn) was 2 µg/mL. For the same compound, the MIC (Klebsiella pneumoniae; isolate 130) was 4 µg/mL, the MIC (Klebsiella pneumoniae; isolate 214-1) was 8 µg/mL and the MIC (Klebsiella pneumoniae; isolate 463) was 2 µg/mL. For the same compound, the MIC (Klebsiella pneumoniae; isolate 938) was 4 µg/mL, the MIC (Klebsiella pneumoniae; isolate 1231) was 4 µg/mL and the “mic of each drug in combination I + A” value (Klebsiella pneumoniae; isolate 130) was under 0.5 µg/mL. For the same compound, the “mic of each drug in combination I + A” value (Klebsiella pneumoniae; isolate 214-1) was under 0.5 µg/mL, the “mic of each drug in combination I + A” value (Klebsiella pneumoniae; isolate 463) was under 0.5 µg/mL and the “mic of each drug in combination I + A” value (Klebsiella pneumoniae; isolate 938) was under 0.5 µg/mL. The “mic of each drug in combination I + A” value (Klebsiella pneumoniae; isolate 1231) was 2 µg/mL, the MIC (Proteus rettgeri; isolate 53) was 8 µg/mL and the MIC (Proteus rettgeri; isolate 136-1) was 4 µg/mL. For the same compound, the MIC (Proteus rettgeri; isolate 768) was 16 µg/mL, the MIC (Proteus rettgeri; isolate 997) was 8 µg/mL and the MIC (Proteus rettgeri; isolate 1422) was 4 µg/mL. For the same compound, the “mic of each drug in combination I + A” value (Proteus rettgeri; isolate 53) was under 0.5 µg/mL, the “mic of each drug in combination I + A” value (Proteus rettgeri; isolate 136-1) was 1 µg/mL and the “mic of each drug in combination I + A” value (Proteus rettgeri; isolate 768) was under 0.5 µg/mL. For the same compound, the “mic of each drug in combination I + A” value (Proteus rettgeri; isolate 997) was under 0.5 µg/mL, the “mic of each drug in combination I + A” value (Proteus rettgeri; isolate 1422) was 8 µg/mL and the MIC (Pseudomonas maltophilia; isolate 10) was over 64 µg/mL. For the same compound, the MIC (Pseudomonas maltophilia; isolate 505) was over 64 µg/mL, the “mic of each drug in combination I + A” value (Pseudomonas maltophilia; isolate 10) was under 0.5 µg/mL and the “mic of each drug in combination I + A” value (Pseudomonas maltophilia; isolate 505) was 1 µg/mL. For the same compound, the MIC (Acinetobacter sp.; isolate 28-1) was 8 µg/mL, the MIC (Acinetobacter sp.; isolate 28-2) was 4 µg/mL and the MIC (Acinetobacter sp.; isolate 106) was 2 µg/mL. For the same compound, the MIC (Acinetobacter sp.; isolate 107) was 8 µg/mL, the MIC (Acinetobacter sp.; isolate 109) was 4 µg/mL and the “mic of each drug in combination I + A” value (Acinetobacter sp.; isolate 28-1) was 8 µg/mL. The “mic of each drug in combination I + A” value (Acinetobacter sp.; isolate 28-2) was under 0.5 µg/mL, the “mic of each drug in combination I + A” value (Acinetobacter sp.; isolate 106) was under 0.5 µg/mL and the “mic of each drug in combination I + A” value (Acinetobacter sp.; isolate 107) was 8 µg/mL. The “mic of each drug in combination I + A” value (Acinetobacter sp.; isolate 109) was under 0.5 µg/mL, the MIC (Pseudomonas pseudomallei; Burkholderia pseudomallei, read-out: mic, drug alone) was 32 µg/mL (≈ 54.6 µM) and the “mic of each drug in combination I + A” value (Pseudomonas pseudomallei; Table III, isolate not named) was 8 µg/mL. For the same compound, the “average peak serum concentration” value ([1]; 250 mg (3.7 mg/kg) intramuscular) was “about 12 mcg/ml”, the serum level ([1]; 250 mg (3.7 mg/kg) intramuscular, 10 hours) was “about 0.3 mcg/ml” and the “average peak serum concentration” value ([1]; 375 mg (5 mg/kg) intramuscular) was about 16 µg/mL. The serum level ([1]; 375 mg (5 mg/kg) intramuscular, 10 hours) was about 1.2 µg/mL, the serum level ([1]; 500 mg (7.5 mg/kg) infusion over 30 minutes, 30 minutes post-infusion) was 24 µg/mL and the serum level ([1]; 500 mg (7.5 mg/kg) infusion over 30 minutes, 1 hour post-infusion) was 18 µg/mL. For the same compound, the serum level ([1]; 500 mg (7.5 mg/kg) infusion over 30 minutes, 10 hours post-infusion) was 0.75 µg/mL, the “mean peak serum concentration” value ([1]; 500 mg (7.5 mg/kg) infusion over 30 minutes, end of infusion) was 38 µg/mL and the “average peak serum concentration” value ([1]; 500 mg (7.5 mg/kg) intramuscular) was about 21 µg/mL. For the same compound, the serum level ([1]; 500 mg (7.5 mg/kg) intramuscular, 10 hours) was about 2.1 µg/mL.
For `NC[C@H]1O[C@H](O[C@H]2[C@H](O)[C@@H](O[C@H]3O[C@H](CO)[C@@H](O)[C@H](N)[C@H]3O)[C@H](N)C[C@@H]2N)[C@H](N)C[C@@H]1O` [tobramycin sulfate], the maximum serum concentrations [2] is given as “about 4 mcg/ml”.
